Measured values: article PMC11964917 (Nature Microbiology, 2025)

Legend:
influenza A/H7N9 virus = assay type: cell-based
influenza A/H5N1 virus = assay type: cell-based
recombinant NA A/H7N9 = assay type: biochemical, influenza A virus

SMILES	EC50 (influenza A/H7N9 virus)	EC50 (influenza A/H5N1 virus)	IC50 (recombinant NA A/H7N9)
O=C1c2c(O)c(=O)ccn2N([C@@H]2c3ccccc3SCc3c2ccc(F)c3F)[C@@H]2COCCN12 [BXA, baloxavir acid]	< 0.03 nM	< 0.03 nM	
CC(=O)N[C@H]1[C@H]([C@H](O)[C@H](O)CO)OC(C(=O)O)=C[C@@H]1N=C(N)N [ZAN, zanamivir]			> 100 nM
